US10086045B2, “Methods of treatment using stem cell mobilizers” (THE JOHNS HOPKINS UNIVERSITY, priority 2010, dated 2018)

B1: G-CSF: granulocyte colony stimulating factor, stem cell mobilizer (protein, UniProt P09919 31-207, looked up)
Granulocyte …: TPLGPASSLPQSFLLKCLEQVRKIQGDGAALQEKLVSECATYKLCHPEELVLLGHSLGIPWAPLSSCPSQALQLAGCLSQLHSGLFLYQGLLQALEGISPELGPTLDTLQLDVADFATTIWQQMEELGMAPALQPTQGAMPAFASAFQRRAGGVLVASHLQSFLEVSYRVLRHLAQP

Legend:
[1] = system: C57BL/6 mice; assay: Rodent model of acute liver failure: CCl4 dose finding (survival, serum transaminases); format: in vivo
Experimental: FIG. 1A-1C describes mortality and hepatic injury after injection of carbon tetrachloride (CCl4). FIG. 1A is a graph showing percent survival over four days among groups (n=10) of mice administered intraperitoneal injections of CCL4 at doses of 2 ml/kg (solid line), 3 ml/kg (dashed line), 4 ml/kg (diamond markers), or 4.5 ml/kg (circle markers). FIG. 1B is a graph displaying peak liver function test (LF) results, specifically, serum aspartate transaminase (AST) (dark bars) and alanine transaminase (ALT) (light bars) levels in mice (n=2) 24 hrs and 96 hrs after intraperitoneal injection of CCL4 at 4 ml/kg compared to baseline levels in uninjected animals (0 hrs).
Rodent models of Acute Liver Failure.
The large majority of animals in this group were transiently ill but rapidly regained vigor. […] A dose of 4 ml/kg would result in about 60% to 100% mortality among the animals over the course of three to seven days. Slight adjustments in the dose (i.e., 4.5 ml/kg) at this level would have obvious effects on mortality with all animals succumbing within 24-48 hours.
A dose of 4 ml/kg was eventually selected for the final model. Mortality with this dose was typically about 80% around five days and was preceded by a significant elevation in serum transaminases. AST and ALT levels peaked at approximately 5,000 on day one to two after injury (FIG. 1B).

[2] = system: CXCR4 receptor; conditions: mutated receptor (not named); cited from earlier work
[3] = system: CD34+ stem cells in peripheral blood; conditions: pigs
Experimental: The dosage of plerixafor used in swine transplants was based on the experiments in rats. It is possible that the effective dosage of plerixafor will differ among species. The efficacy of plerixafor was tested in non-transplanted pigs and blood cell count and flow cytometric analysis were used to measure CD34^+ stem cells in peripheral blood.

[4] = system: human immunodeficiency virus (HIV); conditions: cited from earlier work
[5] = system: CD34+ HSCs / peripheral white blood cells; assay: HSC mobilization in rats, flow cytometric analysis of peripheral blood; format: in vivo; conditions: for peripheral CD34+ absolute count / total lymphocyte count: single dose; for average total WBC: single sc dose (plerixafor 2 mg/kg, G-CSF 300 μg/kg), n=3
Experimental: Rats (n=3 per treatment group) were administered a single dose of plerixafor (2 mg/kg), G-CSF (300 μg/kg) or both. In FIG. 2A, peripheral total white blood cell (WBC) count, total lymphocytes, and CD34^+ cells were measured in […] by FACS analysis at 1 hr and 6 hrs after injection. […] See Mozobil (plerixafor injection) Product Monograph 2009 (Genzyme Corporation, Cambridge, Mass.).
Mobilization of HSCs. For HSC mobilization, plerixafor and G-CSF were administered by subcutaneous injection at weight-based doses consistent with those that have proven effective in human clinical trials or as has been used previously by the present inventors (plerixafor, 2 mg/kg/dose; G-CSF 300 μg/kg/dose). Plerixafor and G-CSF were administered 12-hours following CCl4 injection, in treatment groups comprised of eight to ten animals. Control treatment groups were administered an injection with an equivalent volume of saline.
Flow Cytometric Analysis of Peripheral Blood. Following HSC mobilization, animals were sacrificed at either one or six hours post treatment and blood was collected. Leukocyte suspensions (1×10^6) of peripheral blood were analyzed for CD34, Thy-1 and c-Kit expression. Nonspecific antibody binding was blocked with mouse and donkey serum (Sigma) for 30 minutes. The cells were incubated with Alexa Fluor 647 conjugated mouse anti-rat CD34 (1:10) (Santa Cruz Biotechnology), fluorescein isothiocyanate (FITC)-conjugated mouse anti-rat CD90 (Thy-1, 1:100) (BD Pharmingen), and rabbit anti-rat c-Kit (1:100) (Santa Cruz Biotechnology) for 45 minutes at 4° C., followed by phycoerythrin (PE)-conjugated donkey anti-rabbit IgG (1:200) (eBioscience) for 30 minutes at 4° C. The CD34, Thy-1 and c-Kit positive cells were counted by flow cytometry using CELLQuest software (Becton-Dickinson).

[6] = system: CD34+ cells / HSCs; conditions: healthy volunteers; cited from earlier work
[7] = CCl4 4 ml/kg, day one to two after injury

Molecule | mortalities per ten animals ([1]; CCl4 2 ml/kg intraperitoneal, within first one to two days) | mortality ([1]; CCl4 4 ml/kg, around five days) | peak serum ALT level [1, 7] | peak serum AST level [1, 7] | time within which all animals succumbed ([1]; CCl4 4.5 ml/kg) [h] | affinity of mutated receptor relative to affinity in CXCR4 [2] [fold] | increase in affinity after introduction of Glu at VII:06 and removal of Lys at VII:02 [2] [fold] | time of peak CD34+ cell levels ([3]; after subcutaneous injection) [h] | difference in number of CD34+ cells between 1 mg/kg and 2 mg/kg ([3]; at 2, 3 and 6 hours after injection) | absolute number of CD34+ cells per ml blood ([3]; subcutaneous injection, time-dependent) | anti-HIV efficacy in vivo [4] | peripheral CD34+ absolute count ([5]; one hour) [cells/ml] | total lymphocyte count ([5]; one hour) | peripheral CD34+ absolute count ([5]; six hours) [cells/ml] | total lymphocyte count ([5]; six hours) | average total WBC ([5]; 1 hour) | average total WBC ([5]; 6 hours) | mobilization of HSCs to the periphery [6]
ClC(Cl)(Cl)Cl [CCL4, carbon tetrachloride] | one or two | about 80% | approximately 5,000 | approximately 5,000 | 24 to 48 | – | – | – | – | – | – | – | – | – | – | – | – | –
c1cc(CN2CCCNCCNCCCNCC2)ccc1CN1CCCNCCNCCCNCC1 [plerixafor, 1,1′-[1,4-phenylenebis(methylene)]bis-1,4,8,11-tetraazacyclo-tetradecane] | – | – | – | – | – | ≤ 10 | 1000 | 3 | no significant difference | significantly increased | not an effective anti-HIV agent | 333 | 4,400 | 135 | 4,800 | 6,100 | 7,300 | massive mobilization
B1 | – | – | – | – | – | – | – | – | – | – | – | 216 | 2,000 | 238 | 4,100 | 3,300 | 7,800 | –
